{
  "source": "ChEMBL document CHEMBL1201862",
  "about": "“PubChem BioAssay data set” (2004)",
  "assay_in_all_cases": "DTP human tumour cell line panel, 48 h",
  "key": {"[1]": {"tested_on": "786-0"}, "[2]": {"tested_on": "A549"}, "[3]": {"tested_on": "ACHN"}, "[4]": {"tested_on": "CAKI-1"}, "[5]": {"tested_on": "CCRF-CEM"}, "[6]": {"tested_on": "COLO 205"}, "[7]": {"tested_on": "DLD-1"}, "[8]": {"tested_on": "DMS-114"}, "[9]": {"tested_on": "DMS-273"}, "[10]": {"tested_on": "EKVX"}, "[11]": {"tested_on": "HCC 2998"}, "[12]": {"tested_on": "HCT-116"}, "[13]": {"tested_on": "HCT-15"}, "[14]": {"tested_on": "HL-60"}, "[15]": {"tested_on": "HOP-18"}, "[16]": {"tested_on": "HOP-62"}, "[17]": {"tested_on": "HT-29"}, "[18]": {"tested_on": "IGROV-1"}, "[19]": {"tested_on": "K562"}, "[20]": {"tested_on": "KM-20L2"}, "[21]": {"tested_on": "KM12"}, "[22]": {"tested_on": "LOX IMVI"}, "[23]": {"tested_on": "LXFL 529"}, "[24]": {"tested_on": "M14"}, "[25]": {"tested_on": "M19-MEL"}, "[26]": {"tested_on": "MOLT-4"}, "[27]": {"tested_on": "Malme-3M"}, "[28]": {"tested_on": "NCI-H226"}, "[29]": {"tested_on": "NCI-H23"}, "[30]": {"tested_on": "NCI-H460"}, "[31]": {"tested_on": "NCI-H522"}, "[32]": {"tested_on": "OVCAR-3"}, "[33]": {"tested_on": "OVCAR-4"}, "[34]": {"tested_on": "OVCAR-5"}, "[35]": {"tested_on": "OVCAR-8"}, "[36]": {"tested_on": "RPMI-8226"}, "[37]": {"tested_on": "RXF 393"}, "[38]": {"tested_on": "SF-268"}, "[39]": {"tested_on": "SF-295"}, "[40]": {"tested_on": "SK-MEL-28"}, "[41]": {"tested_on": "SK-MEL-2"}, "[42]": {"tested_on": "SK-MEL-5"}, "[43]": {"tested_on": "SK-OV-3"}, "[44]": {"tested_on": "SN12C"}, "[45]": {"tested_on": "SNB-19"}, "[46]": {"tested_on": "SNB-75"}, "[47]": {"tested_on": "SNB-78"}, "[48]": {"tested_on": "SR"}, "[49]": {"tested_on": "SW-620"}, "[50]": {"tested_on": "TK-10"}, "[51]": {"tested_on": "U-251"}, "[52]": {"tested_on": "UACC-257"}, "[53]": {"tested_on": "UACC-62"}, "[54]": {"tested_on": "UO-31"}, "[55]": {"tested_on": "XF498"}},
  "note": "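Tested at 5 concentrations; 48 h exposure; 96-well plates; endpoints linearly interpolated, else capped at highest concentration. The concentration for 50% growth inhibition is given as GI50.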 Active and inactive are the calls of the source. Rule as the data show it: active = GI50 up to about 1.1 µM and inactive = higher.",
  "data": [
    {"smiles": "COc1ccc(C2C(Cl)C(=O)N2n2cnc3ccccc3c2=O)cc1", "note": "(stereo not given)", "values": [
      {"measurement": "GI50", "setting": "[1]", "result": "46.9 µM (inactive)"},
      {"measurement": "GI50", "setting": "[2]", "result": "> 100 µM (inactive)"},
      {"measurement": "GI50", "setting": "[3]", "result": "40.5 µM (inactive)"},
      {"measurement": "GI50", "setting": "[4]", "result": "82.8 µM (inactive)"},
      {"measurement": "GI50", "setting": "[5]", "result": "> 10 µM (inactive)"},
      {"measurement": "GI50", "setting": "[6]", "result": "62.2 µM (inactive)"},
      {"measurement": "GI50", "setting": "[7]", "result": "> 100 µM (inactive)"},
      {"measurement": "GI50", "setting": "[8]", "result": "72.8 µM (inactive)"},
      {"measurement": "GI50", "setting": "[9]", "result": "82.4 µM (inactive)"},
      {"measurement": "GI50", "setting": "[10]", "result": "50.7 µM (inactive)"},
      {"measurement": "GI50", "setting": "[11]", "result": "> 100 µM (inactive)"},
      {"measurement": "GI50", "setting": "[12]", "result": "54.6 µM (inactive)"},
      {"measurement": "GI50", "setting": "[13]", "result": "> 100", "unit": "µM"},
      {"measurement": "GI50", "setting": "[14]", "result": "59.2 µM (inactive)"},
      {"measurement": "GI50", "setting": "[15]", "result": "24.2 µM (inactive)"},
      {"measurement": "GI50", "setting": "[16]", "result": "> 100 µM (inactive)"},
      {"measurement": "GI50", "setting": "[17]", "result": "> 100 µM (inactive)"},
      {"measurement": "GI50", "setting": "[18]", "result": "> 100 µM (inactive)"},
      {"measurement": "GI50", "setting": "[19]", "result": "89.7 µM (inactive)"},
      {"measurement": "GI50", "setting": "[20]", "result": "> 100 µM (inactive)"},
      {"measurement": "GI50", "setting": "[21]", "result": "> 100 µM (inactive)"},
      {"measurement": "GI50", "setting": "[22]", "result": "77.6 µM (inactive)"},
      {"measurement": "GI50", "setting": "[23]", "result": "62.1 µM (inactive)"},
      {"measurement": "GI50", "setting": "[24]", "result": "28.4 µM (inactive)"},
      {"measurement": "GI50", "setting": "[25]", "result": "76 µM (inactive)"},
      {"measurement": "GI50", "setting": "[26]", "result": "51.3 µM (inactive)"},
      {"measurement": "GI50", "setting": "[27]", "result": "> 100 µM (inactive)"},
      {"measurement": "GI50", "setting": "[28]", "result": "> 100 µM (inactive)"},
      {"measurement": "GI50", "setting": "[29]", "result": "94 µM (inactive)"},
      {"measurement": "GI50", "setting": "[30]", "result": "70.5 µM (inactive)"},
      {"measurement": "GI50", "setting": "[31]", "result": "89.3 µM (inactive)"},
      {"measurement": "GI50", "setting": "[32]", "result": "85.7 µM (inactive)"},
      {"measurement": "GI50", "setting": "[33]", "result": "33.3 µM (inactive)"},
      {"measurement": "GI50", "setting": "[34]", "result": "> 100 µM (inactive)"},
      {"measurement": "GI50", "setting": "[35]", "result": "51.5 µM (inactive)"},
      {"measurement": "GI50", "setting": "[36]", "result": "33.4 µM (inactive)"},
      {"measurement": "GI50", "setting": "[37]", "result": "30.8 µM (inactive)"},
      {"measurement": "GI50", "setting": "[38]", "result": "87.9 µM (inactive)"},
      {"measurement": "GI50", "setting": "[39]", "result": "> 100 µM (inactive)"},
      {"measurement": "GI50", "setting": "[40]", "result": "> 100 µM (inactive)"},
      {"measurement": "GI50", "setting": "[41]", "result": "> 100 µM (inactive)"},
      {"measurement": "GI50", "setting": "[42]", "result": "87.1 µM (inactive)"},
      {"measurement": "GI50", "setting": "[43]", "result": "> 100 µM (inactive)"},
      {"measurement": "GI50", "setting": "[44]", "result": "> 100 µM (inactive)"},
      {"measurement": "GI50", "setting": "[45]", "result": "> 100 µM (inactive)"},
      {"measurement": "GI50", "setting": "[46]", "result": "29.4 µM (inactive)"},
      {"measurement": "GI50", "setting": "[47]", "result": "> 100 µM (inactive)"},
      {"measurement": "GI50", "setting": "[48]", "result": "33 µM (inactive)"},
      {"measurement": "GI50", "setting": "[49]", "result": "> 100 µM (inactive)"},
      {"measurement": "GI50", "setting": "[50]", "result": "98.6 µM (inactive)"},
      {"measurement": "GI50", "setting": "[51]", "result": "> 100 µM (inactive)"},
      {"measurement": "GI50", "setting": "[52]", "result": "> 100 µM (inactive)"},
      {"measurement": "GI50", "setting": "[53]", "result": "> 100 µM (inactive)"},
      {"measurement": "GI50", "setting": "[54]", "result": "71 µM (inactive)"},
      {"measurement": "GI50", "setting": "[55]", "result": "> 100 µM (inactive)"}
    ]}
  ]
}
